Reference: US6528535B2, “Bicyclic inhibitors of protein farnesyl transferase” (Warner-Lambert Company, priority 1997, dated 2003)
Structures can show the parent of a compound that is named as a salt. Where two headings read alike, the source gives them in different places.

Experiments:
[1] = target: T1, SF9 affinity purified rat FPT (Rattus norvegicus, UniProt Q02293+Q04631); assay: PFT (farnesyl protein transferase) inhibitory activity, radiolabeled farnesyl pyrophosphate / biotinyl peptide bead assay; assay type: biochemical; settings: read-out: FTase, IC50
T1 construct: made in house; host or cells: Sf9 insect cells
Protocol: The protein:farnesyl transferase (PFT) or farnesyl protein transferase (FPT) inhibitory activity of compounds of the present invention were assayed in HEPES buffer (pH 7.4) containing 5 mM potassium phosphate and 20 μM ZnCl2. The solution also contained 5 mM DTT (dithiothreitol), 5 mM MgCl2, and 0.1% PEG 8000. Assays were performed in 96 well plates (Wallec) and employed solutions composed of varying concentrations of a compound of the present invention in 10% DMSO (dimethylsulfoxide). Upon addition of both substrates, radiolabeled farnesyl pyrophosphate ([1^3H], specific activity 15-30 Ci/mmol, final concentration 134 nM) and (biotinyl)-Ahe-Thr-Lys-Cys-Val-Ile-Met ([3aS[3a alpha, 4 beta, 6a alpha]-hexahydro-2-oxo-1H-thieno[3,4-d]imidazole-5-pentanoic acid]-[7-aminoheptanoic acid]-Thr-Lys-Cys-Val-Ile-Met) (Ahe is 7-aminoheptanoic acid, Thr is threonine, Lys is lysine, Cys is cysteine, Val is valine, Ile is isoleucine, and Met is methionine) (final concentration 0.2 μM), the enzyme reaction was started by addition of SF9 affinity purified rat FPT. After incubation at 30° C. for 30 minutes, the reaction was terminated by diluting the reaction 2.5-fold with a stop buffer containing 1.5 M magnesium acetate, 0.2 M H3PO4, 0.5% BSA (bovine serum albumin), and strepavidin beads (Amersham) at a concentration of 1.3 mg/mL. After allowing the plate to settle for 30 minutes at room temperature, radioactivity was quantitated on a microbeta counter (Model 1450, Wallec). The assay was also carried out without 5 mM potassium phosphate.

[2] = average of two tests unless n is given in parentheses

melting point [°C] | IC50 [1, 2] [nM] | IC50 ([1]; Examples 56-74, parallel synthesis array: single test, values adjusted to account for the purity of the sample) [nM] | SMILES
143 to 144 | 320 |  | O=C1C(=Cc2ccc(Cl)s2)CCc2cc(OCCn3ccnc3)ccc21 [Example 18, 2-(5-Chloro-thiophen-2-ylmethylene)-6-(2-imidazole-1-yl-ethoxy)-3,4-dihydro-2H-naphthalen-1-one]
135 to 137 | 3100 |  | O=C1C(=Cc2sccc2Oc2ccccc2)CCc2cc(OCCn3ccnc3)ccc21 [Example 20, 6-(2-Imidazole-1-yl-ethoxy)-2-(3-phenoxy-thiophen-2-ylmethylene)-3,4-dihydro-2H-naphthalen-1-one]
170 to 172 |  |  | CC(=C1CCc2cc(OCCc3c[nH]cn3)ccc2C1=O)c1ccccc1 (as salt: HCl) [Example 40, 6-[2-(1H-Imidazole-4-yl)-ethoxy]-2-(1-phenyl-ethylidene)-3,4-dihydro-2H-naphthalen-1-one]
211 to 213 | 12200 |  | CCN(CC)C(=O)c1ccc(C=C2CCc3cc(OCCc4c[nH]cn4)ccc3C2=O)cc1.Cl [Example 34, N,N-Diethyl-4-{6-[2-(1H-imidazole-4-yl)-ethoxy]-1-oxo-3,4-dihydro-1H-naphthalen-2-ylidenemethyl}-benzamide, monohydrochloride]
168 to 169 | 9100 |  | CSc1ccc(C=C2CCc3cc(OCCc4c[nH]cn4)ccc3C2=O)s1.Cl [Example 32, 6-[2-(1H-Imidazole-4-yl)-ethoxy]-2-(5-methylsulfanyl-thiophen-2-ylmethylene)-3,4-dihydro-2H-naphthalen-1-one, monohydrochloride]
132 to 135 | 2600 |  | CC(COc1ccc2c(c1)CCCC2=O)n1ccnc1 (stereo not drawn) [Example 78, 6-[2-(1H-1-Imidazolyl)propoxy]-1,2,3,4-tetrahydro-1-naphthalenone]
137 to 138 | 89 |  | O=C1C(=Cc2cccs2)CCc2cc(OCCn3ccnc3)ccc21 [Example 14, 6-(2-Imidazole-1-yl-ethoxy)-2-thiophen-2-ylmethylene-3,4-dihydro-2H-naphthalen-1-one]
116 to 117 | 1600 |  | O=C1C(=Cc2ccoc2)CCc2cc(OCCn3ccnc3)ccc21 [Example 23, 2-Furan-3-ylmethylene-6-(2-imidazole-1-yl-ethoxy)-3,4-dihydro-2H-naphthalen-1-one]
153 to 155 | 4400 |  | Cl.O=C1CCCc2cc(OCCCc3c[nH]cn3)ccc21 [Example 43, 6-[3-(1H-Imidazole-4-yl)-propoxy]-3,4-dihydro-2H-naphthalen-1-one, hydrochloride]
132 to 133 | 880 |  | COc1ccc(C=C2CCc3cc(OCCn4ccnc4)ccc3C2=O)cc1 [Example 24, 6-(2-Imidazole-1-yl-ethoxy)-2-(4-methoxy-benzylidene)-3,4-dihydro-2H-naphthalen-1-one]
84 to 86 | 900 |  | CC1(C)CC(=O)c2ccc(OCCn3ccnc3)cc2O1 [Example 83, 7-[2-(1H-Imidazolyl)ethoxy]-2,2-dimethyl-4-chromanone]
176 to 178 | 5900 |  | O=C1C(=Cc2ccc(Br)cc2)CCc2cc(OCCc3c[nH]cn3)ccc21 [Example 42, 2-(4-Bromo-benzylidene)-6-[2-(1H-imidazole-4-yl)-ethoxy]-3,4-dihydro-2H-naphthalen-1-one]
152 to 153 | 1370 |  | O=C1C(=Cc2ccc(Br)cc2)CCc2cc(OCCn3ccnc3)ccc21 [Example 5, 2-(4-Bromo-benzylidene)-6-(2-imidazole-1-yl-ethoxy)-3,4-dihydro-2H-naphthalen-1-one]
198 to 200 | 3600 |  | O=C1/C(=C/C=C/c2ccccc2)CCc2cc(OCCn3ccnc3)ccc21 [Example 44, (E,E)-6-(2-Imidazol-1-yl-ethoxy)-2-(3-phenyl-allylidene)-3,4-dihydro-2H-naphthalen-1-one]
184 to 185 | 1700 |  | O=C1C(=Cc2ccc([N+](=O)[O-])cc2)CCc2cc(OCCn3ccnc3)ccc21 [Example 7, 6-(2-Imidazole-1-yl-ethoxy)-2-(4-nitro-benzylidene)-3,4-dihydro-2H-naphthalen-1-one]
267 to 267.5 | 600 |  | O=C(O)c1ccc(C=C2CCc3cc(OCCn4ccnc4)ccc3C2=O)cc1 [Example 12, 4-[6-(2-Imidazole-1-yl-ethoxy)-1-oxo-3,4-dihydro-1H-naphthalen-2-ylidenemethyl]-benzoic acid]

melting point [°C] | IC50 [1, 2] [nM] | IC50 ([1]; Examples 56-74, parallel synthesis array: single test, values adjusted to account for the purity of the sample) [nM] | SMILES
69 to 70 | 490 |  | Cc1ccc(C=C2CCc3cc(OCCc4c[nH]cn4)ccc3C2=O)s1 [Example 37, 6-[2-(1H-Imidazole-4-yl)-ethoxy]-2-(5-methyl-thiophen-2-ylmethylene)-3,4-dihydro-2H-naphthalen-1-one]
211 to 213 |  |  | O=C1/C(=C/c2cccs2)CNc2cc(OCCn3ccnc3)ccc21 [Example 49, 7-[2-(1H-1-Imidazolyl)ethoxy]-3-[(E)-1-(2-thienyl)methylidene]-1,2,3,4-tetrahydro-4-quinolinone]
155 to 159 | 9300 |  | O=c1cc(-c2ccccc2)oc2cc(OCCn3ccnc3)ccc12 [Example 77, 7-[2-(1H-1-Imidazolyl)ethoxy]-2-phenyl-4H-4-chromenone]
131 to 133 | 2600 |  | O=c1ccoc2cc(OCCn3ccnc3)ccc12 [Example 50, 7-[2-(1H-1-Imidazolyl)ethoxy]-4H-4-chromenone]
164 to 166 | 100 |  | O=C1C(=Cc2cc(Br)cs2)CCc2cc(OCCn3ccnc3)ccc21 [Example 17, 2-(4-Bromo-thiophen-2-ylmethylene)-6-(2-imidazole-1-yl-ethoxy)-3,4-dihydro-2H-naphthalen-1-one]
> 240 | 370 |  | O=C1C(=Cc2ccc([N+](=O)[O-])s2)CCc2cc(OCCn3ccnc3)ccc21 [Example 22, 6-(2-Imidazole-1-yl-ethoxy)-2-(5-nitro-thiophen-2-ylmethylene)-3,4-dihydro-2H-naphthalen-1-one]
129 to 130.5 | 290 |  | O=C1c2ccc(OCCn3ccnc3)cc2CCC1Cc1ccc(Br)cc1 (stereo not drawn) [Example 13, 2-(4-Bromo-benzyl)-6-(2-imidazole-1-yl-ethoxy)-3,4-dihydro-2H-naphthalen-1-one]
114 to 117 | 370 |  | CSc1ccc(CC2CCc3cc(OCCn4ccnc4)ccc3C2=O)cc1 (stereo not drawn) [Example 10, 6-(2-Imidazole-1yl-ethoxy)-2-(4-methylsulfanyl-benzyl)-3,4-dihydro-2H-naphthalen-1-one]
110 to 112 | 1300 |  | Cc1c(OCCn2ccnc2)ccc2c1CCCC2=O [Example 47, 6-[2-(1H-1-Imidazolyl)ethoxy]-5-methyl-1,2,3,4-tetrahydro-1-naphthalenone]
180 to 181 | 2800 |  | O=C1C(=Cc2ccc(-c3cccs3)s2)CCc2cc(OCCn3ccnc3)ccc21 [Example 21, 2-[2,2′]Bithiophenyl-5-ylmethylene-6-(2-imidazole-1-yl-ethoxy)-3,4-dihydro-2H-naphthalen-1-one]
193 to 195 | 340 |  | O=C(O)CON=C1CCCc2cc(OCCn3ccnc3)ccc21 [Example 54, [6-(2-Imidazol-1-yl-ethoxy)-3,4-dihydro-2H-naphthalen-1-ylideneaminooxy]-acetic acid]
147 to 148 | 1300 |  | O=C1C(=Cc2cccc3ccccc23)CCc2cc(OCCn3ccnc3)ccc21 [Example 15, 6-(2-Imidazole-1-yl-ethoxy)-2-naphthalen-1-ylmethylene-3,4-dihydro-2H-naphthalen-1-one]
109 to 110 | 110 |  | O=C1C(=Cc2ccco2)CCc2cc(OCCn3ccnc3)ccc21 [Example 16, 2-Furan-2-ylmethylene-6-(2-imidazole-1-yl-ethoxy)-3,4-dihydro-2H-naphthalen-1-one]
191 to 193 | 3100 |  | Cc1ccsc1C=C1CCc2cc(OCCc3c[nH]cn3)ccc2C1=O [Example 39, 6-[2-(1H-Imidazole-4-yl)-ethoxy]-2-(3-methyl-thiophen-2-ylmethylene)-3,4-dihydro-2H-naphthalen-1-one]
 | 11900 |  | CCN(CC)CCOc1ccc(C=C2CCc3cc(OCCn4ccnc4)ccc3C2=O)cc1 [Example 8, 2-[4-(2-Diethylamino-ethoxy)-benzylidene]-6-(2-imidazole-1-yl-ethoxy)-3,4-dihydro-2H-naphthalen-1-one]
 |  | 1890 | Cc1cccc(/C=C2\CCc3cc(OCCn4ccnc4)ccc3C2=O)c1 [Example 74, 6-[2-(1H-1-Imidazolyl)ethoxy]-2-[(E)-1-(3-methylphenyl)methylidene]-1,2,3,4-tetrahydro-1-naphthalenone]
